The source of these data is US8318725B2, “Aryl indolyl sulfonamide compounds and their use as 5-HT6 ligands” (Suven Life Sciences Limited, priority 2008, dated 2012).

One series concerns 5-HT6 receptor. Conditions: literature statement; cited from earlier work.
The target of the next series is T1, Human 5-HT6 receptor (Homo sapiens, UniProt P50406).
T1 construct: expressed in transfected cells; host or cells: HEK293
Description: Binding assay for human 5-HT6 receptor ([3H] LSD radioligand). The settings on record: [3H] LSD 1.5 nM; human recombinant receptor in HEK293 cells. Here is the method: Binding Assay for Human 5-HT6 Receptor
Compounds can be tested according to the following the procedures. Materials and Methods:
Receptor source: Human recombinant expressed in HEK293 cells
Radioligand: [^3H] LSD (60-80 Ci/mmol)
Final ligand concentration—[1.5 nM]
Non-specific determinant: Methiothepin mesylate—[0.1 μM]
Reference compound: Methiothepin mesylate
Positive control: Methiothepin mesylate
Reactions were carried out in […] TRIS-HCl (pH 7.4) containing 10 μM MgCl2, 0.5 mM EDTA for 60 minutes at 37° C. The reaction was terminated by rapid vacuum filtration onto glass fiber filters. Radioactivity trapped onto the filters was determined and compared to control values in order to ascertain any interactions of test compound(s) with the cloned serotonin 5-HT6binding site.
Literature Reference: Monsma F. J. Jr., et al., Molecular Cloning and Expression of Novel Serotonin Receptor with High Affinity for Tricyclic Psychotropic Drugs. Mol. Pharmacol. (43): 320-327 (1993).

Series [1] in a line: Rodent pharmacokinetic study. It counts as in vivo, Male wistar rats. Conditions: plasma, Wistar/Male rat, 10 mg/kg; for bioavailability: oral vs intravenous, read-out: Bioavailab; for Cmax / Tmax / half-life / AUC: water; for AUC: read-out: AUC1. Here is the method: Rodent Pharmacokinetic Study Male wistar rats (230-280 grams) obtained from NIN (National Institute of Nutrition, Hyderabad, India) were used as an experimental animal. Three to five animals were housed in each cage. Animals were kept fasted over night and maintained on a 12 hours light/dark cycle. Three rats were dosed NCE (10 mg/Kg) orally and intravenously on day 0 and day 2. At each time point blood was collected by jugular vein. Plasma was stored frozen at −20° C. until analysis. The concentrations of the NCE compound in plasma were determined using LC-MS/MS method. Schedule time points: Pre dose 0.25, 0.5, 1, 1.5, 2, 3, 4, 6, 8, 10, 12 and 24 hours after dosing (n=3). The NCE compounds were quantified in plasma by validated LC-MS/MS method using solid phase extraction technique. NCE compounds were quantified in the calibration range of 2-2000 ng/mL in plasma. Study samples were analyzed using calibration samples in the batch and quality control samples spread across the batch. Pharmacokinetic parameters Cmax, Tmax, AUCt, AUCinf, half life, volume of distribution, clearance, mean residence time and thereby oral bioavailability were calculated by non-compartmental model using software WinNonlin version 5.1.

The nature of series [2]: Rodent brain penetration study. It is filed as in vivo, Male Wister rats. Conditions: brain homogenate and plasma; Wistar/Male rat, 10 mg/kg, water, Oral (as in table); read-out: Steady State Brain Penetration (Cb/Cp).
The next series has as its system Male Wister rats. Description: Object recognition task model (NORT). It counts as in vivo. Conditions: for NORT Discriminative Index (DI), treatment: p.o., vehicle value in brackets; for NORT Inference: at the dose tested (10 or 30 mg/kg, p.o.). Here is the method: Object Recognition Task Model
The cognition-enhancing properties of compounds of this invention were estimated using a model of animal cognition: the object recognition task model.
Male Wister rats (230-280 grams) obtained from N. I. N. (National Institute of Nutrition, Hyderabad, India) were used as experimental animals. Four animals were housed in each cage. Animals were kept on 20% food deprivation before one day and given water ad libitum throughout the experiment and-maintained on a 12 hours light/dark cycle. Also the rats were habituated to individual arenas for 1 hour in the absence of any objects.
One group of 12 rats received vehicle (1 mL/Kg) orally and another set of animals received compound of the formula (I) either orally or i.p., before one hour of the familiar (T1) and choice trial (T2).
The experiment was carried out in a 50×50×50 cm open field made up of acrylic. In the familiarilation phase, (T1), the rats were placed individually in the open field for 3 minutes, in which two identical objects (plastic bottles, 12.5 cm height×5.5 cm diameter) covered in yellow masking tape alone (a1 and a2) were positioned in two adjacent corners, 10 cm. from the walls. After 24 hours of the (T1) trial for long-term memory test, the same rats were placed in the same arena as they were, placed in T1 trial. Choice phase (T2) rats were allowed to explore the open field for 3 minutes in presence of one familiar object (a3) and one novel object (b) (Amber color glass'bottle, 12 cm high and 5 cm in diameter). Familiar objects presented similar textures, colors and sizes. During the T1 and T2 trial, explorations of each object (defined as sniffing, licking, chewing or having moving vibrissae whilst directing the nose towards the object at a distance of less than 1 cm) were recorded separately by stopwatch. Sitting on an object was not regarded as exploratory activity, however, it was rarely observed. T1 is the total time spent exploring the familiar objects (a1+a2). T2 is the total time spent exploring the familiar object and novel object (a3+b).
The object recognition test was performed as described by Ennaceur, A., Delacour, J., 1988, A new one-trial test for neurobiological studies of memory in rats—Behavioral data, Behay. Brain Res., 31, 47-59.
Some representative compounds have shown positive effects indicating the increased novel object recognition viz; increased exploration time with novel object and higher discrimination index.

The subject of the next series is rats. Description: Water maze, scopolamine induced reversal. It counts as in vivo. Here is the method: The water maze apparatus consisted of a circular pool (1.8 m diameter, 0.6 m high) constructed in black Perspex (TSE systems, Germany) filled with water (24±2° C.) and positioned underneath a wide-angled video camera to track animal. The 10 cm^2 perspex platform, lying 1 cm below the water surface, was placed in the centre of one of the four imaginary quadrants, which remained constant for all rats. The black Perspex used in the construction of the maze and platform offered no intramaze cues to guide escape behavior. By contrast, the training room offered several strong extramaze visual cues to aid the formation of the spatial map necessary for escape, learning. An automated tracking system, [Videomot 2 (5.51), TSE systems, Germany] was employed. This program analyzes video images acquired via a digital camera and an image acquisition board that determined path length, swim speed and the number of dutation of swim time spent in each quadrant of the water maze.

The subject of series [3] is animal models for schizophrenia. Conditions: literature statement; cited from earlier work.

Molecules are shown by their SMILES. Read-outs that look alike come from different tables or passages of the source. Some results are limits rather than exact numbers.

T1 sequence (P50406 whole entry): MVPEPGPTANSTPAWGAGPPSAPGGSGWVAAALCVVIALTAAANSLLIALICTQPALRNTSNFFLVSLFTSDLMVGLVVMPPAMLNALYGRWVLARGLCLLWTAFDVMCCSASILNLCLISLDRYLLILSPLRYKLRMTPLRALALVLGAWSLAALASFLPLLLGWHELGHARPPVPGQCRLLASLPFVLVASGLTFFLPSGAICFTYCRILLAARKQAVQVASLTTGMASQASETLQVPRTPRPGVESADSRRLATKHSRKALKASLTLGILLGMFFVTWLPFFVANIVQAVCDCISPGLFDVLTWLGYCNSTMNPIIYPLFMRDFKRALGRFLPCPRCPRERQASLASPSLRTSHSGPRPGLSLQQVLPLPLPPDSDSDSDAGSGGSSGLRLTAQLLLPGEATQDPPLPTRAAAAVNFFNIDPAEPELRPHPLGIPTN

In the case of `CN(C)CCC=C1c2ccccc2CCc2ccccc21` [amitriptyline], the “Affinity for the 5-HT6 receptor” value with 5-HT6 receptor was “high affinity”.
Molecule `Cc1cn(S(=O)(=O)c2ccc(Cl)c(CN3CCN(C)CC3)c2)c2ccccc12.Cl.Cl` [Example 35, 1-[4-Chloro-3-(4-methylpiperazin-1-ylmethyl)benzenesulfonyl]-3-methyl-1H-indole dihydrochloride] returned a melting point of 216.9 to 218.7 °C. Besides, at Human 5-HT6 receptor, the Ki was 5.45 nM. The bioavailability in series [1] is 10 ± 6%. Further, in series [1] (Intravenous), the highest concentration (Cmax) worked out at 481 ± 331 ng/mL, the time of peak concentration (Tmax) is 0.08 h, the half-life was 5.84 ± 2.21 h and the AUC came to 808 ± 156 ng·h/mL. Further, in series [1] (Oral), the Cmax turned out to be 106 ± 1 ng/mL, the Tmax is 0.38 ± 0.18 h, the half-life is 1.73 ± 0.56 h and the AUC worked out at 342 ± 152 ng·h/mL. Besides, the Kp in series [2] is 1.61 ± 0.39. Besides, in the series on Male Wister rats (30 mg/kg), the “NORT Discriminative Index (DI), treatment” value (from here on “NORT Discriminative Index”) is on record as 0.63 (0.49). The “NORT Inference” value in the series on Male Wister rats was “Active”. Also, the “Scopolamine Induced Reversal” value in the series on rats is listed as >30 mg/kg, p.o.
On to `COc1ccc(NS(=O)(=O)c2sc3ccc(Cl)cc3c2C)cc1N1CCNCC1` [SB-271046, 5-Chloro-N-(4-methoxy-3-piperazin-1-ylphenyl)-3-methyl-2-benzothiophenesulfonamide], for which, in series [3], the “Activity in animal tests related to positive or negative symptoms of schizophrenia” value was “inactive”.
Take `CCN1CCN(Cc2cc(S(=O)(=O)n3ccc4ccccc43)ccc2C)CC1.Cl.Cl` [Example 23, 1-[4-methyl-3-(4-ethylpiperazin-1-ylmethyl)benzenesulfonyl]-1H-indole dihydrochloride]: the melting point worked out at 250.13 °C. Also, the Ki on Human 5-HT6 receptor is 3.96 nM. Moreover, the bioavailability in series [1] was found to be 14 ± 10%. In series [1] (Intravenous), the Cmax amounted to 4680 ± 617 ng/mL, the Tmax came out at 0.08 h, the half-life is 6.25 ± 0.35 h and the AUC was found to be 4070 ± 888 ng·h/mL. Further, in series [1] (Oral), the concentration peaked (Cmax) at 749 ± 836 ng/mL, the Tmax came out at 0.5 ± 0.43 h, the half-life was 3.18 ± 1.71 h and the AUC turned out to be 1170 ± 1050 ng·h/mL. Also, in series [2], the Kp turned out to be 0.53 ± 0.13. The “NORT Discriminative Index” value in the series with Male Wister rats (30 mg/kg) is 0.58 (0.49). Besides, the “NORT Inference” value in the series with Male Wister rats is recorded as “Active”. For the same molecule, in the series on rats, the “Scopolamine Induced Reversal” value is reported as “≧30 mg/kg, p.o”.
`Cc1ccc(S(=O)(=O)n2ccc3ccccc32)cc1CN1CCN(C)CC1.Cl.Cl` [Example 22, 1-[4-methyl-3-(4-methylpiperazin-1-ylmethyl)benzenesulfonyl]-1H-indole dihydrochloride]: the Ki on Human 5-HT6 receptor came out at 7.01 nM. Also, the bioavailability in series [1] was 30 ± 7%. Besides, in series [1] (Intravenous), the peak level (Cmax) was 4320 ± 1680 ng/mL, the Tmax was determined as 0.08 h, the half-life was 2.69 ± 1.51 h and the AUC is 5130 ± 1750 ng·h/mL. In series [1] (Oral), the maximum concentration (Cmax) worked out at 1380 ± 427 ng/mL, the Tmax was 0.38 ± 0.18 h, the half-life was 7.85 ± 2.62 h and the AUC is 3190 ± 1750 ng·h/mL. Moreover, in series [2], the Kp turned out to be 2.03 ± 0.42. For the same molecule, in the series on Male Wister rats (10 mg/kg), the “NORT Discriminative Index” value was 0.57 (0.54). Also, the “NORT Inference” value with Male Wister rats was “Active”. For the same molecule, the “Scopolamine Induced Reversal” value with rats is listed as >30 mg/kg, p.o.
Regarding `CN1CCN2c3ccccc3Cc3ccccc3C2C1` (centres unmarked) [mianserin], the “Affinity for the 5-HT6 receptor” value with 5-HT6 receptor is given as “high affinity”.

As usually defined, the Ki is the dissociation constant of the complex between target and ligand, obtained from inhibition or displacement. In general, Cmax refers to the highest concentration seen after dosing. What is called Tmax is the time at which the peak concentration occurs. The half-life is the time in which the quantity being followed falls by half. Read a high half-life as slow loss. In general, melting point refers to the temperature of the solid-liquid transition.
